US10398142B2, “Polycationic amphiphiles as antimicrobial agents” (priority 2013, dated 2019)
“And” between values parts separate entries of the source, which are not always exact repeats. Identical values can stand only once. “Also recorded” adds a separate entry of the source. Like-named read-outs stand apart in the source and are kept apart here. Marks after values point to notes of the source that are not given here.

How the values were obtained:
CA-MRSA (USA300-0114) = experiment: Minimum inhibitory concentration (MIC), broth microdilution; assay type: cell-based, Staphylococcus aureus; settings: for MIC: read-out: MIC CA-MRSA
Procedure: (§1) Different biological assays were performed. […] All cultures, with the exception of E. faecalis, were grown with shaking at 250 rpm.
(§2) Minimum inhibitory concentration (MIC) values against bacteria were measured using standard method. Compounds were serially diluted two-fold from an aqueous stock solution to yield twelve test concentrations. Overnight S. aureus, E. faecalis, E. coli, P. aeruginosa, CA-MRSA, and HA-MRSA cultures diluted to ca. 10^6 cfu/mL in Mueller-Hinton media and 100 μL were inoculated into each well of a U-bottom 96-well plate (BD Biosciences, BD351177) containing 100 μL of compound solution. Plates were incubated statically at 37° C. for 72 hours upon which time wells were evaluated visually for bacterial growth. The MIC was determined as the lowest concentration of compound resulting in no bacterial growth visible to the naked eye, based on the majority of three independent experiments. Positive and negative aqueous and media controls were conducted for each trial.

HA-MRSA (ATCC 33591) = experiment: as above; assay type: cell-based, Staphylococcus aureus; settings: for MIC: read-out: MIC HA-MRSA
Procedure: as §1, §2

[1] = tested on: CA-MRSA (USA300-0114) biofilms; experiment: Minimum biofilm eradication concentration (MBEC), regrowth assay; assay type: cell-based, Staphylococcus aureus; settings: Table 5; USA300-0114
Procedure: (§3) A regrowth assay was used to establish the MBEC of a compound to evaluate the antibiofilm activity. See also H. Ceri, M. Olson, D. Morck, D. Storey, R. Read, A. Buret, B. Olson, Methods Enzymol. 2001, 337, 377.
(§4) Different biological assays were performed. For all biological assays, laboratory strains of methicillin-susceptible Staphylococcus aureus MSSA (SH1000), Enterococcus faecalis (OG1RF), Escherichia coli (MC4100), Pseudomonas aeruginosa (PAO1), community-acquired methicillin-resistant Staphylococcus aureus CA-MRSA (USA300-0114), and hospital-acquired methicillin-resistant Staphylococcus aureus HA-MRSA (ATCC 33591) were grown at 37° C. overnight from freezer stocks in 10 mL of the media indicated for each assay. All cultures, with the exception of E. faecalis, were grown with shaking at 250 rpm.
(§5) Minimum biofilm eradication concentration (MBEC) was also measured. To each well of a flat-bottomed 96-well plate (Corning 3370), 8 μL of overnight bacterial culture was brought to a volume of 200 μL with fresh media (BHI for S. aureus and MRSA, Todd Hewitt (TH) for E. faecalis). Plates were incubated statically for 24 hours at 37° C. to establish biofilms. After 24 hours, the wells were carefully emptied by inverting the plate and gently shaking. A pre-mixed solution of media and aqueous compound stock solution was added to each well and plates were incubated at 37° C. 16 hours after pre-established biofilms were treated with compound, the media from each well was removed, biofilms were washed three times with 200 μL PBS to remove planktonic cells, and biofilms were incubated overnight at 37° C. in 200 μL of fresh media to allow any viable cells to continue growing. The wells were then vigorously pipetted to resuspend the biofilm cells and the OD at 595 nm was measured using a plate reader (POLARstar Omega, BMG Labtech). Biofilms reaching a final OD of less than 0.1 were considered eradicated and the lowest concentration of antibiotic corresponded to the MBEC. Four replicates were completed for each concentration of compound as well as positive and negative controls.

[2] = tested on: S. aureus (MSSA, SH1000) biofilms; experiment: as above; assay type: cell-based, Staphylococcus aureus; settings: for MBEC MSSA: Table 5, SH1000; for MBEC S. aureus: Table 2, pre-established biofilm, ± values varied between 50 and 100 μM for the six trials
Description: as §3
(§6) Encouraged by the potency of the QACs against planktonic bacterial cells, the inventors then evaluated the efficacy of compound (12,2,12) against Staphylococcus aureus and Enterococcus faecalis biofilms. […] To both accurately evaluate the antibiofilm activity, a regrowth assay was utilized to establish the minimum biofilm eradication concentration (MBEC) of each compound.
as §4, §5

E. faecalis biofilms = experiment: as above; assay type: cell-based, Enterococcus faecalis
Description: as §3, §6, §4, §5

[3] = tested on: red blood cells (defibrinated sheep blood); experiment: Hemolysis assay (Lysis20); settings: for Lysis20: Table 4, concentration at which less than 20% of red blood cells are lysed
Procedure: Hemolysis assays (Lysis20) were performed according to the procedure detailed in Peng, L., DeSousa, J., Su, Z., Novak, B. M., Nevzorov, A. A., Garland, E. R., and Melander, C., Inhibition of Acinetobacter baumannii biofilm formation on a methacrylate polymer containing a 2-aminoimidazole subunit, Chem. Comm. 2011, 47, 4896-4898. Defibrinated sheep blood was purchased from Hemostat Labs (DSB 100). Compounds representative of each class were serially diluted in sterile PBS from aqueous stock solutions and incubated with resuspended blood cells. The OD of the final suspensions were measured directly using plate reader. TritonX (1% by volume) served as a positive control (100% lysis marker) and sterile PBS served as a negative control (0% lysis marker).
Lysis20 indicates the concentration of compound (in μM) at which less than 20% of red blood cells are lysed.

[4] = tested on: Staphylococcus aureus MSSA (SH1000); experiment: Minimum inhibitory concentration (MIC), broth microdilution; assay type: cell-based
Procedure: (§7) The term “minimum inhibitory concentration (MIC)” means the lowest concentration of an antimicrobial agent that will inhibit the visible growth of a microorganism after overnight incubation. MIC values against bacteria, for example, the Gram-positive Staphylococcus aureus and Enterococcus faecalis and the Gram-negative Escherichia coli and Pseudomonas aeruginosa were determined by standard methods.
(§8) With nearly three-dozen amphiphiles varying in structure and cationic nature synthesized, minimum inhibitory concentration (MIC) values against the Gram-positive Staphylococcus aureus and Enterococcus faecalis and the Gram-negative Escherichia coli and Pseudomonas aeruginosa were determined by standard methods. […] The commercially available antibacterial agent benzalkonium chloride (benzyldimethyldodecylammonium chloride, Bn,12) was tested for comparison. The broth microdilution for determining MIC values was performed as previously reported.
as §1, §2

[5] = tested on: Escherichia coli (MC4100); experiment: as above; assay type: cell-based; settings: for MIC: read-out: MIC E. coli
Procedure: as §7, §8, §1, §2

[6] = tested on: Pseudomonas aeruginosa (PAO1); experiment: as above; assay type: cell-based; settings: for MIC: read-out: MIC P. aeruginosa
Procedure: as §7, §8, §1, §2

[7] = tested on: Enterococcus faecalis (OG1RF); experiment: as above; assay type: cell-based; settings: for MIC: read-out: MIC E. faecalis
Procedure: as §7, §8, §1, §2

[8] = Table 4, SH1000, read-out: MIC MSSA
[9] = Table 2, pre-established biofilm, ± values varied between 50 and 100 μM for the six trials
[10] = Table 1, read-out: MIC S. aureus

SMILES	MIC (CA-MRSA (USA300-0114); Table 4, USA300-0114)	MIC (HA-MRSA (ATCC 33591); Table 4, ATCC 33591)	MBEC CA-MRSA [1]	MBEC MSSA [2]	MBEC E. faecalis (E. faecalis biofilms; Table 5)	Lysis20 [3]	MIC [4, 8]	also measured
CCCCCCCCCCCC[N+](C)(C)CCC[N+](C)(CCCCCCCCCCCC)CCC[N+](C)(C)CCCCCCCCCCCC.[Br-].[Br-].[Br-] [12,3,12,3,12]	1 µM	1 µM	>200 µM	100 µM	200 µM	4 µM	0.5 µM	MIC ([4]; Table 3, read-out: MIC S. aureus): 0.5 µM; MIC ([5]; Table 3): 1 µM; MIC ([6]; Table 3): 4 µM; MIC ([7]; Table 3): 1 µM
CCCCCCCCCCCC[N+](C)(C)CC[N+](C)(C)CC[N+](C)(C)CCCCCCCCCCCC.[Br-].[Br-].[I-] [12,2,1,2,12]	1 µM	1 µM	≥200 µM	200 µM	>200 µM	16 µM	1 µM	MBEC S. aureus [2]: 50 µM; MBEC E. faecalis (E. faecalis biofilms; [9]): 25 µM; MIC [4, 10]: ≤0.25 µM; MIC S. aureus ([4]; Table 3): ≤0.25-4^a μM; MIC ([5]; Table 1): 0.5 µM; MIC E. coli ([5]; Table 3): 0.5-4^a μM; MIC ([6]; Table 1): 1 µM; MIC P. aeruginosa ([6]; Table 3): 1-8^a μM; MIC ([7]; Table 1): ≤0.25 µM; MIC E. faecalis ([7]; Table 3): ≤0.25-4^a μM
CCCCCCCCCCCC[N+](C)(C)CC[N+](C)(C)CCCCCCCCCCCC [12,2,12]	0.5 µM	0.5 µM	200 µM	75 ± 25 µM	50 µM	8 µM	1 µM	MBEC S. aureus [2]: 75 μM and 75 ± 25^a μM; MBEC E. faecalis (E. faecalis biofilms; [9]): 75 μM and 75 ± 25^a μM; MIC [4, 10]: 1 µM; MIC ([5]; Table 1): 2 µM; MIC ([6]; Table 1): 4 µM; MIC ([7]; Table 1): 1 µM
CCCCCCCCCCCCCCCC[N+](C)(C)CCN(C)C.[Br-] [16,2,0]	4 µM	2 µM	>200 µM	100 µM	50 µM	16 µM	1 µM	
CCCCCCCCCCCC[n+]1cccc(-c2ccc[n+](CCCCCCCCCCCC)c2)c1.[Br-].[Br-] [MQ-12,12]	2 µM	1 µM	100 µM	100 µM	100 µM	8 µM	1 µM	
CCCCCCCCCCCC[n+]1ccc(-c2cc[n+](CCCCCCCCCCCC)cc2)cc1.[Br-].[Br-] [PQ-12,12]	1 µM	0.5 µM	100 µM	200 µM	200 µM	8 µM	1 µM	
CCCCCCCCCC[N+](C)(C)CCCCCCCCCC.[Cl-] [10,10, reference compound]	4 µM	2 µM	≥200 µM	150 ± 50 µM	>200 µM	16 µM	1 µM	
CCCCCCCCCCCC[n+]1ccc(-c2cc[n+](Cc3ccccc3)cc2)cc1 [PQ-12,Bn]			200 µM	200 µM	200 µM	125 µM		MIC (CA-MRSA (USA300-0114); Staphylococcus aureus): 32 µM; potency against CA-MRSA strain possessing qacA/R (in words) (CA-MRSA (USA300-0114); compared with MSSA): elevated MICs; also recorded: decreased potency; MIC (HA-MRSA (ATCC 33591); Staphylococcus aureus): 16 µM; potency against HA-MRSA (in words) (HA-MRSA (ATCC 33591); compared with MSSA): elevated MICs; prokaryotic selectivity (lytic profile vs MIC, in words) ([3]; among the multiQACs evaluated): highest prokaryotic selectivity; MIC ([4]; Staphylococcus aureus, MSSA, read-out: MIC MSSA): 4 µM
CCCCCCCCCCCC[n+]1cccc(-c2ccc[n+](Cc3ccccc3)c2)c1.[Br-].[Br-] [MQ-12,Bn]	16 µM	16 µM	>200 µM	>200 µM	>200 µM	125 µM	8 µM	prokaryotic selectivity (lytic profile vs MIC, in words) [3]: highest prokaryotic selectivity
